For assay [1], the system named is Macrophage. Kind of assay: Antiinflammatory activity in Escherichia coli O6:K2:H1-induced human M2 macrophage assessed as change in PGD2 level at 1 uM preincubated for 10 mins followed by Escherichia coli O6:K2:H1-stimulation and measured after 180 mins by UPLC-MS/MS analysis relative to control. The assay is classed as functional.
Assay [2] concerns the target T1, Leukotriene A-4 hydrolase (Homo sapiens, UniProt P09960).
T1 sequence (P09960 whole entry): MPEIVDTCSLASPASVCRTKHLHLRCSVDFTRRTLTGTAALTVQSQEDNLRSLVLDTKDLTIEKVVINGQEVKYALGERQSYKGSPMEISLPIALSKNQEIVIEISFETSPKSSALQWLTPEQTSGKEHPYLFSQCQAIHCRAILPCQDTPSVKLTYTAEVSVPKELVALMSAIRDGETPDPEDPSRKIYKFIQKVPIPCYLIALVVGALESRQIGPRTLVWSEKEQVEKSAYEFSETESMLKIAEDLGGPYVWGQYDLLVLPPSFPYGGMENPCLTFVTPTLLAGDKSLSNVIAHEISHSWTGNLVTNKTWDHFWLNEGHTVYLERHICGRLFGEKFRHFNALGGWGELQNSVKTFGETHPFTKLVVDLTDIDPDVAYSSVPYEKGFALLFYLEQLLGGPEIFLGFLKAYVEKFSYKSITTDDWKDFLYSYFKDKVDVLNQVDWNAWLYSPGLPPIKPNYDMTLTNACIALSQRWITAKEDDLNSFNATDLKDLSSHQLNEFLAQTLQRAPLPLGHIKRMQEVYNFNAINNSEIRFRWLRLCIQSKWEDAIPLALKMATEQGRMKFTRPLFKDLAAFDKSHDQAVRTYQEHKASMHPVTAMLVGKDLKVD
Kind of assay: Inhibition of (His)6 tagged human recombinant LTA4H expressed in Escherichia coli BL21(DE3) using non-fluorescent L-arginine-7-amino-4-methylcoumarine as substrate preincubated for 30 mins followed by substrate addition and measured for 30 mins by fluorescence based assay.

Assay [3] concerns Macrophage. Kind of assay: Antiinflammatory activity in Escherichia coli O6:K2:H1-induced human M2 macrophage assessed as change in PGF2alpha level at 10 uM preincubated for 10 mins followed by Escherichia coli O6:K2:H1-stimulation and measured after 180 mins by UPLC-MS/MS analysis relative to control. In kind it is functional.
The test system of assay [4] is Macrophage. The assay is described as follows: Antiinflammatory activity in Escherichia coli O6:K2:H1-induced human M2 macrophage assessed as change in 7-HDHA level at 10 uM preincubated for 10 mins followed by Escherichia coli O6:K2:H1-stimulation and measured after 180 mins by UPLC-MS/MS analysis relative to control. The assay is classed as functional.
The test system of assay [5] is Macrophage. The assay is described as follows: Antiinflammatory activity in Escherichia coli O6:K2:H1-induced human M1 macrophage assessed as change in 17-HDHA level at 10 uM preincubated for 10 mins followed by Escherichia coli O6:K2:H1-stimulation and measured after 180 mins by UPLC-MS/MS analysis relative to control. The assay is classed as functional.
The subject of assay [6] is Macrophage. The assay is described as follows: Antiinflammatory activity in Escherichia coli O6:K2:H1-induced human M2 macrophage assessed as change in LTB4 level at 10 uM preincubated for 10 mins followed by Escherichia coli O6:K2:H1-stimulation and measured after 180 mins by UPLC-MS/MS analysis relative to control. In kind it is functional.
In assay [7] the test system is Macrophage. Kind of assay: Antiinflammatory activity in Escherichia coli O6:K2:H1-induced human M2 macrophage assessed as change in 5-HEPE level at 10 uM preincubated for 10 mins followed by Escherichia coli O6:K2:H1-stimulation and measured after 180 mins by UPLC-MS/MS analysis relative to control. In kind it is functional.
Assay [8] relates to Macrophage. The assay is described as follows: Antiinflammatory activity in Escherichia coli O6:K2:H1-induced human M1 macrophage assessed as change in PGD2 level at 1 uM preincubated for 10 mins followed by Escherichia coli O6:K2:H1-stimulation and measured after 180 mins by UPLC-MS/MS analysis relative to control. In kind it is functional.
In assay [9] the test system is Macrophage. Kind of assay: Antiinflammatory activity in Escherichia coli O6:K2:H1-induced human M1 macrophage assessed as change in 5.15-dlHETE level at 10 uM preincubated for 10 mins followed by Escherichia coli O6:K2:H1-stimulation and measured after 180 mins by UPLC-MS/MS analysis relative to control. In kind it is functional.
Assay [10] addresses T2, Bifunctional epoxide hydrolase 2 (Homo sapiens, UniProt P34913).
T2 sequence (P34913 whole entry): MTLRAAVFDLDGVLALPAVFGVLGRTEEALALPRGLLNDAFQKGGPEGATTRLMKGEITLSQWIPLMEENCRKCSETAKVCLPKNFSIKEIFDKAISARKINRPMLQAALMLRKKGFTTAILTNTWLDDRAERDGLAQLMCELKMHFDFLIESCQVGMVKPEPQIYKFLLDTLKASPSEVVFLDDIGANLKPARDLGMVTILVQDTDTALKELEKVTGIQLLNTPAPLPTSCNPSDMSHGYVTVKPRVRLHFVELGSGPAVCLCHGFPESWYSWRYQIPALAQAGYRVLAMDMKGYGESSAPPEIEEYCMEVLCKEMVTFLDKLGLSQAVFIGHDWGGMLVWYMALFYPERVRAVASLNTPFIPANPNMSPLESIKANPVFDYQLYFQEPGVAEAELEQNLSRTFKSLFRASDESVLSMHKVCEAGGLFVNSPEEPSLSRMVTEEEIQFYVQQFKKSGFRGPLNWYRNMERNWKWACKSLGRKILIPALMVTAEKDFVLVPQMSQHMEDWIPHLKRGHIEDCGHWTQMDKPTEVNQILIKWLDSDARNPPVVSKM
The assay is described as follows: Inhibition of full length human soluble epoxide hydrolase (1 to 555 residues) expressed in Escherichia coli BL21(DE3) using non-fluorescent PHOME as substrate preincubated for 30 mins followed by substrate addition and measured for 30 mins by fluorescence based assay.

Assay [11] deals with Macrophage. The assay is described as follows: Antiinflammatory activity in Escherichia coli O6:K2:H1-induced human M2 macrophage assessed as change in total LTB4 level at 10 uM preincubated for 10 mins followed by Escherichia coli O6:K2:H1-stimulation and measured after 180 mins by UPLC-MS/MS analysis relative to control. The assay is classed as functional.
In assay [12] the test system is Macrophage. Kind of assay: Antiinflammatory activity in Escherichia coli O6:K2:H1-induced human M1 macrophage assessed as change in 14-HDHA level at 10 uM preincubated for 10 mins followed by Escherichia coli O6:K2:H1-stimulation and measured after 180 mins by UPLC-MS/MS analysis relative to control. In kind it is functional.
Assay [13] concerns Macrophage. Kind of assay: Antiinflammatory activity in Escherichia coli O6:K2:H1-induced human M2 macrophage assessed as change in 15-HETE level at 10 uM preincubated for 10 mins followed by Escherichia coli O6:K2:H1-stimulation and measured after 180 mins by UPLC-MS/MS analysis relative to control. In kind it is functional.
Assay [14] deals with Macrophage. The assay is described as follows: Antiinflammatory activity in Escherichia coli O6:K2:H1-induced human M2 macrophage assessed as change in 4-HDHA level at 1 uM preincubated for 10 mins followed by Escherichia coli O6:K2:H1-stimulation and measured after 180 mins by UPLC-MS/MS analysis relative to control. The assay is classed as functional.
Assay [15] relates to Macrophage. The assay is described as follows: Antiinflammatory activity in Escherichia coli O6:K2:H1-induced human M1 macrophage assessed as change in PGF2alpha level at 1 uM preincubated for 10 mins followed by Escherichia coli O6:K2:H1-stimulation and measured after 180 mins by UPLC-MS/MS analysis relative to control. In kind it is functional.

Consider `O=C(Cc1ccc(Oc2nc3ccccc3s2)cc1F)NCCc1ccc(F)cc1`, for which the Activity was 63% in the assay on Macrophage [1]; 45% in the assay on Macrophage [3]; 77% in the assay with Macrophage [4]; 269% in the assay with Macrophage [5]; 23% in the assay with Macrophage [6]; 97% in the assay with Macrophage [7]. Further, the Activity is on record as 127% in the assay on Macrophage [8]; 97% in the assay on Macrophage [9]; 72% in the assay with Macrophage [11]; 114% in the assay with Macrophage [12]; 123% in the assay with Macrophage [13]; 82% in the assay on Macrophage [14]. In addition, the Activity with Macrophage [15] stood at 94%. Further, the IC50 – broadly, the concentration that gives 50% inhibition – in assay [2] turned out to be 200 nM; in [10] it was 300 nM.

The values are drawn from ChEMBL document CHEMBL4342480, “Design of Dual Inhibitors of Soluble Epoxide Hydrolase and LTA4 Hydrolase” (ACS Med Chem Lett, 2020).
